This is an account of results in patent publication US20200055839A1 (priority 2017, published 2020).

The assay concerns NL-RLuc virus. The assay is described as follows: Inhibition of HIV replication (NL-RLuc virus, luciferase readout in MT-2 cells). The settings on record: Human immunodeficiency virus 1, MT2, 120 h, MT-2 cells infected with NL-RLuc virus, 5 days of incubation, 10% FBS, at least 2 experiments. In kind it is cell-based. In short, it runs like this: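 EC50 derived via median effect equation from at least 2 experiments, using luciferase expression as virus-growth readout. Replication-competent NL-RLuc reporter virus (nef partly replaced by Renilla luciferase) infected MT-2 cells with serial compound dilutions; 5-day incubation in RPMI 1640 plus 10% FBS.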

What is called EC50 is the midpoint of the concentration-response curve. A lower EC50 goes with greater potency. `Cc1nc(NC2CCOCC2)c(-c2ccc(OCCc3ccc(F)cc3)cc2)c(N2CCC(C)(C)CC2)c1[C@H](OC(C)(C)C)C(=O)O` [Example 24, (S)-2-(tert-Butoxy)-2-(4-(4,4-dimethylpiperidin-1-yl)-5-(4-(4-fluorophenethoxy)phenyl)-2-methyl-6-((tetrahydro-2H-pyran-4-yl)amino)pyridin-3-yl)acetic acid] displayed a 50% effective concentration (EC50) of 2 nM.
`Cc1nc(Nc2ccnc(C(=O)O)c2)c(-c2ccc(OCCc3ccc(F)cc3)cc2)c(N2CCC(C)(C)CC2)c1[C@H](OC(C)(C)C)C(=O)O` [Example 102, (S)-4-((5-(tert-Butoxy(carboxy)methyl)-4-(4,4-dimethylpiperidin-1-yl)-3-(4-(4-fluorophenethoxy)phenyl)-6-methylpyridin-2-yl)amino)picolinic acid] registered a concentration for a half-maximal effect (EC50) of 50 nM.
As for `Cc1ccc(CCOc2ccc(-c3cnc(C)c([C@H](OC(C)(C)C)C(=O)O)c3N3CCC(C)(C)CC3)nc2)cc1F` [Example 332, (2S)-2-(tert-butoxy)-2-[4′-(4,4-dimethylpiperidin-1-yl)-5-[2-(3-fluoro-4-methylphenyl)ethoxy]-6′-methyl-[2,3′-bipyridine]-5′-yl]acetic acid], the figure is 0.5 nM; as for `CC1(C)CCN(c2c(-c3ccc(OCCc4ccc(F)cc4)cn3)cnc(Cl)c2[C@H](OC(C)(C)C)C(=O)O)CC1` [Example 225, (2S)-2-(tert-Butoxy)-2-[6′-chloro-4′-(4,4-dimethylpiperidin-1-yl)-5-[2-(4-fluorophenyl)ethoxy]-[2, 3′-bipyridine]-5′-yl]acetic acid], 1 nM; as for `COc1cnc(-c2cnc(C)c([C@H](OC(C)(C)C)C(=O)O)c2N2CCC(C)(C)CC2)nc1` [Example 228, (S)-2-(tert-Butoxy)-2-(4-(4,4-dimethylpiperidin-1-yl)-5-(5-methoxypyrimidin-2-yl)-2-methylpyridin-3-yl)acetic acid], 52 nM.
Next, `Cc1ncc(-c2cnc(OCCc3ccc(F)c(Cl)c3)c(F)c2)c(N2CCC(C)(C)CC2)c1[C@H](OC(C)(C)C)C(=O)O` [Example 403, (2S)-2-(tert-butoxy)-2-{6′-[2-(3-chloro-4-fluorophenyl)ethoxy]-4-(4,4-dimethylpiperidin-1-yl)-5′-fluoro-6-methyl-[3,3′-bipyridine]-5-yl}acetic acid]: 2 nM.
`COc1c(F)cc(-c2c(CN3CCCC3)nc(C)c([C@H](OC(C)(C)C)C(=O)O)c2N2CCC(C)(C)CC2)cc1F` [Example 198, (2S)-2-(tert-Butoxy)-2-[5-(3,5-difluoro-4-methoxyphenyl)-4-(4,4-dimethylpiperidin-1-yl)-2-methyl-6-[(pyrrolidin-1-yl)methyl]pyridin-3-yl]acetic acid] came in with an EC50 of 12 nM.
Next, `Cc1ncc(-c2ccc(/C=C/C(C)C)nc2)c(N2CCC(C)(C)CC2)c1[C@H](OC(C)(C)C)C(=O)O` [Example 421, (S,E)-2-(tert-Butoxy)-2-(4-(4,4-dimethylpiperidin-1-yl)-6-methyl-6′-(3-methylbut-1-en-1-yl)-[3, 3′-bipyridin]-5-yl)acetic acid]: 8 nM.
As for `Cc1cccc(Cl)c1COc1ccc(-c2cnc(C)c([C@H](OC(C)(C)C)C(=O)O)c2N2CCC(C)(C)CC2)nc1` [Example 283, (S)-2-(tert-Butoxy)-2-(5-((2-chloro-6-methylbenzyl)oxy)-4′-(4,4-dimethylpiperidin-1-yl)-6′-methyl-[2, 3′-bipyridin]-5′-yl)acetic acid], the figure is 3 nM.
For `Cc1ncc(-c2ccc(OCCc3c(F)cccc3Cl)cn2)c(N2CCC(C)(C)CC2)c1[C@H](OC(C)(C)C)C(=O)O` [Example 305, (2S)-2-(tert-butoxy)-2-{5-[2-(2-chloro-6-fluorophenyl)ethoxy]-4′-(4,4-dimethylpiperidin-1-yl)-6′-methyl-[2,3′-bipyridine]-5′-yl}acetic acid], the EC50 was determined as 1 nM.
Next, `Cc1ncc(-c2ccc3ccncc3c2)c(N2CCC(C)(C)CC2)c1[C@H](OC(C)(C)C)C(=O)O` [Example 176, (2S)-2-(tert-Butoxy)-2-[4-(4,4-dimethylpiperidin-1-yl)-5-(isoquinolin-7-yl)-2-methylpyridin-3-yl]acetic acid]: 5 nM; `Cc1ncc(-c2ccc(CCC(C)C)cn2)c(N2CCC(C)(C)CC2)c1[C@H](OC(C)(C)C)C(=O)O` [Example 273, (S)-2-(tert-Butoxy)-2-(4′-(4,4-dimethylpiperidin-1-yl)-5-isopentyl-6′-methyl-[2, 3′-bipyridin]-5′-yl)acetic acid]: 4 nM; `COc1c(F)ccc(-c2cnc(C)c([C@H](OC(C)(C)C)C(=O)O)c2N2CCC(C)(C)CC2)c1F` [Example 171, (2S)-2-(tert-Butoxy)-2-[5-(2,4-difluoro-3-methoxyphenyl)-4-(4,4-dimethylpiperidin-1-yl)-2-methylpyridin-3-yl]acetic acid]: 5 nM.
As for `Cc1nc(Nc2cccc(F)n2)c(-c2ccc(OCCc3ccc(F)cc3)cc2)c(N2CCC(C)(C)CC2)c1[C@H](OC(C)(C)C)C(=O)O` [Example 89, (S)-2-(tert-Butoxy)-2-(4-(4,4-dimethylpiperidin-1-yl)-5-(4-(4-fluorophenethoxy)phenyl)-6-((6-fluoropyridin-2-yl)amino)-2-methylpyridin-3-yl)acetic acid], the figure is 13 nM; as for `Cc1nc(-c2cnn(C)c2)c(-c2ccc(OCCc3ccc(F)cc3)cc2)c(N2CCC(C)(C)CC2)c1[C@H](OC(C)(C)C)C(=O)O` [Example 36, (S)-2-(tert-Butoxy)-2-(4-(4,4-dimethylpiperidin-1-yl)-5-(4-(4-fluorophenethoxy)phenyl)-2-methyl-6-(1-methyl-H-pyrazol-4-yl)pyridin-3-yl)acetic acid], 4 nM.
As for `Cc1[nH]c(=O)c([C@H](OC(C)(C)C)C(=O)O)c(N2CCC(C)(C)CC2)c1-c1ccc(OCCc2ccc(F)cc2)cc1` [Example 4, (S)-2-(tert-butoxy)-2-(4-(4,4-dimethylpiperidin-1-yl)-5-(4-(4-fluorophenethoxy)phenyl)-6-methyl-2-oxo-1,2-dihydropyridin-3-yl)acetic acid], the figure is 8 nM; as for `Cc1ccc(Nc2nc(C)c([C@H](OC(C)(C)C)C(=O)O)c(N3CCC(C)(C)CC3)c2-c2ccc(OCCc3ccc(F)cc3)cc2)c(C)n1` [Example 85, (S)-2-(tert-Butoxy)-2-(4-(4,4-dimethylpiperidin-1-yl)-6-((2,6-dimethylpyridin-3-yl)amino)-5-(4-(4-fluorophenethoxy)phenyl)-2-methylpyridin-3-yl)acetic acid], 3 nM; as for `CCOc1ccc(CCOc2ccc(-c3cnc(C)c([C@H](OC(C)(C)C)C(=O)O)c3N3CCC(C)(C)CC3)nc2)cc1` [Example 320, (2S)-2-(tert-butoxy)-2-[4′-(4,4-dimethylpiperidin-1-yl)-5-[2-(4-ethoxyphenyl)ethoxy]-6′-methyl-[2,3′-bipyridine]-5′-yl]acetic acid], 2 nM.
In turn, `Cc1nc(-c2ccn(C)c2)c(-c2ccc(OCCc3ccc(F)cc3)cc2)c(N2CCC(C)(C)CC2)c1[C@H](OC(C)(C)C)C(=O)O` [Example 48, (S)-2-(tert-Butoxy)-2-(4-(4,4-dimethylpiperidin-1-yl)-5-(4-(4-fluorophenethoxy)phenyl)-2-methyl-6-(1-methyl-1H-pyrrol-3-yl)pyridin-3-yl)acetic acid] showed an EC50 of 3 nM.
`Cc1ncc(-c2ccc3c(c2)OCO3)c(N2CCC(C)(C)CC2)c1[C@H](OC(C)(C)C)C(=O)O` [Example 180, (2S)-2-[5-(2H-1,3-Benzodioxol-5-yl)-4-(4,4-dimethylpiperidin-1-yl)-2-methylpyridin-3-yl]-2-(tert-butoxy)acetic acid]: a half-maximal effect (EC50) was put at 3 nM. In other words, the single-digit nanomolar range.
As for `CC1(C)CCN(c2c(-c3ccc(OCCc4ccc(F)cc4)cc3)cnc(Cl)c2[C@H](OC(C)(C)C)C(=O)O)CC1` [Example 211, (S)-2-(tert-Butoxy)-2-(2-chloro-4-(4,4-dimethylpiperidin-1-yl)-5-(4-(4-fluorophenethoxy)phenyl)pyridin-3-yl)acetic acid], the figure is 3 nM.
Next, `Cc1ncc(-c2cnc(OCCc3ccccc3F)c(Cl)c2)c(N2CCC(C)(C)CC2)c1[C@H](OC(C)(C)C)C(=O)O` [Example 252, (S)-2-(tert-Butoxy)-2-(5′-chloro-4-(4,4-dimethylpiperidin-1-yl)-6′-(2-fluorophenethoxy)-6-methyl-[3, 3′-bipyridin]-5-yl)acetic acid]: 1 nM.
Next, `Cc1ncc(-c2ccc(OCc3cccc(Cl)c3)cn2)c(N2CCC(C)(C)CC2)c1[C@H](OC(C)(C)C)C(=O)O` [Example 337, (2S)-2-(tert-butoxy)-2-{5-[(3-chlorophenyl)methoxy]-4′-(4,4-dimethylpiperidin-1-yl)-6′-methyl-[2,3′-bipyridine]-5′-yl}acetic acid]: 2 nM.
As to `Cc1ncc(-c2cccc(F)c2Cl)c(N2CCC(C)(C)CC2)c1[C@H](OC(C)(C)C)C(=O)O` [Example 165, (2S)-2-(tert-Butoxy)-2-[5-(2-chloro-3-fluorophenyl)-4-(4,4-dimethylpiperidin-1-yl)-2-methylpyridin-3-yl]acetic acid], the EC50 was determined as 8 nM.
As for `Cc1cc(-c2cnc(C)c([C@H](OC(C)(C)C)C(=O)O)c2N2CCC(C)(C)CC2)cnc1OCCc1ccc(F)cc1` [Example 253, (S)-2-(tert-Butoxy)-2-(4-(4,4-dimethylpiperidin-1-yl)-6′-(4-fluorophenethoxy)-5′,6-dimethyl-[3,3′-bipyridin]-5-yl)acetic acid], the figure is 1 nM; as for `COc1c(F)cc(-c2c(CO)nc(Cl)c([C@H](OC(C)(C)C)C(=O)O)c2N2CCC(C)(C)CC2)cc1F` [Example 205, (S)-2-(tert-Butoxy)-2-(2-chloro-5-(3,5-difluoro-4-methoxyphenyl)-4-(4,4-dimethylpiperidin-1-yl)-6-(hydroxymethyl)pyridin-3-yl)acetic acid], 6 nM.
